Test results published in patent publication US9253983B2, “Triazole compound and use thereof” (KUREHA CORPORATION, priority 2011, dated 2016).

How the values were obtained:
[1] = system: Erysiphe graminis f. sp tritici; test: Controlling effect on wheat powdery mildew by foliage spray treatment (Tests 1 and 2); type: in vivo; details: foliage spray 12.5 mg/L, 1,000 L/ha
Source text: The suspension was sprayed at 1,000 L/ha to leaves of wheat plants (cultivar: NORIN No. 61) in their second leaf stage. The wheat plants had been grown in square plastic pots (6 cm×6 cm). After the suspension was left to dry, the plants were inoculated with Erysiphe graminis f. sp tritici taken from wheat plants infected with wheat powdery mildew, by sprinkling. 8 days and 11 days after the inoculation, the lesion degree of the wheat powdery mildew was examined in accordance with the criteria shown in Table 4. The protective values were found in the same way as in Experiment Example 2.
The suspension was sprayed at 1,000 L/ha to leaves of wheat plants (cultivar: NORIN No. 61) in their second leaf stage. The wheat plants had been grown in square plastic pots (6 cm×6 cm). After the leaves were air-dried, they were inoculated with Erysiphe graminis f. sp tritici taken from wheat plants infected with wheat powdery mildew, by sprinkling. 8 days after the inoculation, the lesion degree of the wheat powdery mildew was examined. The protective values were calculated as were in Experiment Example 1.

rice plant [2] = test: Growth inhibition (adverse effects) of seed treatment on rice plant seeds; type: in vivo; details: treatment amount 80 g ai/100 kg seeds, 20 days after sowing
Description: A pot experiment was performed to evaluate the growth inhibition (adverse effects) caused by the seed treatment. Compound (1-1a) and Compound (1-2a), each of which was dissolved in DMSO to make up such a concentration that the seeds would be treated in treatment amount of 2 g to 200 g ai/100 kg seeds, were each applied to wheat seeds in a vial, and thereafter 8 wheat seeds were sowed in an 80-cm^2 pot. The pot was kept in a greenhouse with water supplied to its bottom. 20 days after the sowing, a growth measure of wheat was evaluated. A growth inhibition index was calculated based on the criteria shown by Table 10. In Table 10, a smaller growth inhibition index indicates a lesser adverse effect of growth inhibition caused by the treatment with the use of a plant disease controlling agent.
(§1) A pot experiment was performed to evaluate the growth inhibition (adverse effects) caused by the seed treatment. Compound (1-1a), which was dissolved in DMSO to make up such a concentration that the seeds would be treated in treatment amount of 80 g ai/100 kg seeds, was applied to rice plant seeds in a vial, and thereafter 16 rice plant seeds were sowed in a 50-cm^2 pot. The pot was kept in a greenhouse with water supplied to its bottom. 20 days after the sowing, a growth measure of rice plant was evaluated. A growth inhibition index was calculated as was in Experiment Example 5.

rice plant [3] = test: Necrosis (adverse effects) of seed treatment on rice plant seeds; type: in vivo; details: treatment amount 80 g ai/100 kg seeds, 20 days after sowing
Description: A pot experiment was performed to evaluate necrosis (adverse effects) caused by the seed treatment. Compound (1-1a) and Compound (1-2a), each which was dissolved in DMSO to make up such a concentration that the seeds would be treated in treatment amount of 2 g to 200 g ai/100 kg seeds, were each applied to wheat seeds in a vial, and thereafter 8 wheat seeds were sowed in an 80-cm^2 pot. The pot was kept in a greenhouse with water supplied to its bottom. 20 days after the sowing, an extent of necrosis (percentage of necrotic surface area) of wheat was evaluated. A necrosis index was derived from the percentage of the necrotic surface area, based on the criteria shown by Table 13. In Table 13, a smaller necrosis index indicates a lesser adverse effect of necrosis caused by the treatment with the use of a plant disease controlling agent.
as §1, with “necrosis” for “the growth inhibition”, “The pot was kept in a greenhouse with water supplied to its bottom.” left out, “an extent of necrosis (percentage of necrotic surface area)” for “a growth measure”, “necrosis” for “growth inhibition”, “6.” for “5.”

Alternaria alternata = test: Test 1 for antifungal effect, plate medium: A.m; type: cell-based; details: PDA plate medium
Description: (§2) Compound (1-1a) or Compound (1-2a) was dissolved in dimethyl sulfoxide, and the resulting solution was added to a PDA medium (potato dextrose-agar medium) at about 60° C. The medium and the solution were mixed thoroughly in a conical flask, poured into a petri dish, and allowed to solidify. In this way, a plate medium containing Compound (1-1a) or Compound (1-2a) at a certain concentration was prepared.
(§3) Meanwhile, test microorganisms cultured on a plate medium in advance were cut out with the use of a cork borer 4 mm in diameter, and were inoculated onto the compound-containing plate medium. After the inoculation, the microorganisms were cultured at their optimum growth temperatures (for example, refer to LIST OF CULTURES 1996 microorganisms 10th edition, Institute for Fermentation (foundation)) for 1 day to 7 days, and their growth was determined by measuring the diameter of their flora. The extent of growth of the microorganisms on the compound-containing plate medium was compared with that of microorganisms on a plate medium where no compound was added, and mycelial growth inhibition rate was calculated by the following equation: R=100(dc−dt)/dc where R is mycelial growth inhibition rate (%), dc is the flora diameter in untreated plate, and dt is the flora diameter in plate treated with the compound.
(§4) A larger antifungal index indicates a better antifungal effect.

rice Bakanae disease = test: Efficacy of seed treatment on rice Bakanae disease; type: in vivo, Gibberella fujikuroi; details: rice seed treatment 80 g ai/100 kg seeds, 20 days after sowing
Description: A pot experiment was performed to evaluate the effectiveness of the seed treatment in controlling rice Bakanae disease. Compound (1-1a), which was dissolved in DMSO to make up such a concentration that the seeds would be treated in treatment amount of 80 g ai/100 kg seeds, was applied in a vial to seeds of a rice plant infected with rice Bakanae disease, and thereafter 16 rice plant seeds were sowed in a 50-cm^2 pot. The pot was kept in a greenhouse with water supplied to its bottom. 20 days after the sowing, examination was conducted on the percentage of seedlings infected with […]. Then, protective values were calculated as were in Experiment Example 4.

Rhizoctonia solani = test: Test 1 for antifungal effect, plate medium: R.s; type: cell-based; details: PDA plate medium
Description: as §2, §3, §4

[4] = system: Pseudocercoporella herpotrichoides; test: Test 1 for antifungal effect, plate medium: P.h; type: cell-based; details: PDA plate medium
Description: as §2, §3, §4

Cercospora beticola = test: Test 1 for antifungal effect, plate medium: C.b; type: cell-based; details: PDA plate medium
Description: as §2, §3, §4

Structure (SMILES) | Protective value (%) (8 days after treatment) [1] | Protective value (%) (11 days after treatment) [1] | Growth inhibition index (rice plant [2]) | Necrosis index (rice plant [3]) | Antifungal index (mycelial growth inhibition rate) (Alternaria alternata; 0.16 mg/L) | Antifungal index (mycelial growth inhibition rate) (Alternaria alternata; 0.31 mg/L) | Antifungal index (mycelial growth inhibition rate) (Alternaria alternata; 0.63 mg/L) | Antifungal index (mycelial growth inhibition rate) (Alternaria alternata; 1.25 mg/L) | Antifungal index (mycelial growth inhibition rate) (Alternaria alternata; 2.50 mg/L) | Protective value (%) (rice Bakanae disease) | Antifungal index (mycelial growth inhibition rate) (Rhizoctonia solani; 0.16 mg/L) | Antifungal index (mycelial growth inhibition rate) (Rhizoctonia solani; 0.31 mg/L) | Antifungal index (mycelial growth inhibition rate) (Rhizoctonia solani; 0.63 mg/L) | Antifungal index (mycelial growth inhibition rate) (Rhizoctonia solani; 1.25 mg/L) | Antifungal index (mycelial growth inhibition rate) (Rhizoctonia solani; 2.50 mg/L) | Antifungal index (mycelial growth inhibition rate) ([4]; 0.16 mg/L) | Antifungal index (mycelial growth inhibition rate) ([4]; 0.31 mg/L) | Antifungal index (mycelial growth inhibition rate) ([4]; 0.63 mg/L) | Antifungal index (mycelial growth inhibition rate) ([4]; 1.25 mg/L) | Antifungal index (mycelial growth inhibition rate) ([4]; 2.50 mg/L) | also measured
CC1(CCl)CCC(Cc2ccc(Cl)cc2)C1(O)Cn1cncn1 (single isomer, unassigned) [Compound (1-1a), (1,2-cis, 1,5-cis)-5-(4-chlorobenzyl)-2-chloromethyl-2-methyl-1-(1H-1,2,4-triazole-1-ylmethyl)cyclopentanol] | 96% | 84% | 0 (50% or more) | 0 (Less than 1%) | 1 (Less than 60%) | 4 (Less than 90% but not less than 80%) | 4 (Less than 90% but not less than 80%) | 5 (90% or greater) | 5 (90% or greater) | 100% | 2 (Less than 70% but not less than 60%) | 2 (Less than 70% but not less than 60%) | 2 (Less than 70% but not less than 60%) | 2 (Less than 70% but not less than 60%) | 3 (Less than 80% but not less than 70%) | 1 (Less than 60%) | 5 (90% or greater) | 5 (90% or greater) | 5 (90% or greater) | 5 (90% or greater) | Antifungal index (mycelial growth inhibition rate) (Cercospora beticola; 0.16 mg/L): 4 (Less than 90% but not less than 80%); Antifungal index (mycelial growth inhibition rate) (Cercospora beticola; 0.31 mg/L): 5 (90% or greater); Antifungal index (mycelial growth inhibition rate) (Cercospora beticola; 0.63 mg/L): 5 (90% or greater); Antifungal index (mycelial growth inhibition rate) (Cercospora beticola; 1.25 mg/L): 5 (90% or greater); Antifungal index (mycelial growth inhibition rate) (Cercospora beticola; 2.50 mg/L): 5 (90% or greater)
CC1(CCl)CCC(Cc2ccc(Cl)cc2)C1(O)Cn1cncn1 (single isomer, unassigned) [Compound (1-1b), (1,2-cis, 1,5-cis)-5-(4-chlorobenzyl)-2-chloromethyl-2-methyl-1-(1H-1,2,4-triazole-1-ylmethyl)cyclopentanol] | 71% | 58% | 4 (Less than 20% but 10% or more) | 2 (Less than 20% but not less than 5%) | 1 (Less than 60%) | 3 (Less than 80% but not less than 70%) | 4 (Less than 90% but not less than 80%) | 4 (Less than 90% but not less than 80%) | 5 (90% or greater) | 66% | 1 (Less than 60%) | 1 (Less than 60%) | 2 (Less than 70% but not less than 60%) | 2 (Less than 70% but not less than 60%) | 2 (Less than 70% but not less than 60%) | 1 (Less than 60%) | 1 (Less than 60%) | 2 (Less than 70% but not less than 60%) | 3 (Less than 80% but not less than 70%) | 4 (Less than 90% but not less than 80%) | Antifungal index (mycelial growth inhibition rate) (Cercospora beticola; 0.16 mg/L): 3 (Less than 80% but not less than 70%); Antifungal index (mycelial growth inhibition rate) (Cercospora beticola; 0.31 mg/L): 4 (Less than 90% but not less than 80%); Antifungal index (mycelial growth inhibition rate) (Cercospora beticola; 0.63 mg/L): 5 (90% or greater); Antifungal index (mycelial growth inhibition rate) (Cercospora beticola; 1.25 mg/L): 5 (90% or greater); Antifungal index (mycelial growth inhibition rate) (Cercospora beticola; 2.50 mg/L): 5 (90% or greater)
